This note sets out measurements from ChEMBL document CHEMBL5137114, “Discovery of IHMT-MST1-58 as a Novel, Potent, and Selective MST1 Inhibitor for the Treatment of Type 1/2 Diabetes” (J Med Chem, 2022).

For data set [1], the target named is T1, Serine/threonine-protein kinase 3 (Homo sapiens, UniProt Q13188).
T1 sequence (Q13188 whole entry): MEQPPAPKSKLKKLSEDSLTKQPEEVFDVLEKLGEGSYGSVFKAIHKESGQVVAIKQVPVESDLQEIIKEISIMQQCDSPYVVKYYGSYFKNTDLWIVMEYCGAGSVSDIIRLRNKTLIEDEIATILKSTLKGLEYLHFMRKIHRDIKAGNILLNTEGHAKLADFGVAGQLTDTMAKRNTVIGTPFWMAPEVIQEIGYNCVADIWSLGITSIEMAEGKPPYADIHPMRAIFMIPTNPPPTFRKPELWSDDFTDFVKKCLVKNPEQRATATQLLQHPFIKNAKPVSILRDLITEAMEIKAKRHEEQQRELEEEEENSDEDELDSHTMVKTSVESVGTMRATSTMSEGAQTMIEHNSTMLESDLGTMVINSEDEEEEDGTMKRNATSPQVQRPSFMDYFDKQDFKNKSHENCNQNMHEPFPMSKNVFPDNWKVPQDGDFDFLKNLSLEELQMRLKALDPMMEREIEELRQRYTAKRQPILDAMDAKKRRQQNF
Put plainly: Inhibition of recombinant full length N-terminal GST -tagged human MST2 expressed in baculovirus infected Sf9 insect cells using KKSRGDYMTMQIG as substrate incubated for 1 hr in presence of ATP by ADP-Glo luminescent assay.

Data set [2] deals with T2, Serine/threonine-protein kinase Nek3 (Homo sapiens, UniProt P51956).
T2 sequence (P51956 whole entry): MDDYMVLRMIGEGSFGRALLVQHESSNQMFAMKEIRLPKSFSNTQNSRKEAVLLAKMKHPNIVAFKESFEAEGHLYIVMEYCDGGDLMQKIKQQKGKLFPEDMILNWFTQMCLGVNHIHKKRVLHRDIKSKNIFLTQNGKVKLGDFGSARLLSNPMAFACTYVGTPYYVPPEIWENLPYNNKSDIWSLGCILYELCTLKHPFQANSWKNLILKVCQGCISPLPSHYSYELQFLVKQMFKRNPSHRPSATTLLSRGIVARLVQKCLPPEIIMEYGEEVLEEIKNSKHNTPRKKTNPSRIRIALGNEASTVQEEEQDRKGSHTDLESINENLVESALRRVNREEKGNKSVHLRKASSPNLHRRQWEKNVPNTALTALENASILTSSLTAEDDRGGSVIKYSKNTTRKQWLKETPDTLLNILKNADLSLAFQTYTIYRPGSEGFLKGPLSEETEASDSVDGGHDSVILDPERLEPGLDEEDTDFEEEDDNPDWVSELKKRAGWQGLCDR
Put plainly: Inhibition of recombinant full length N-terminal GST -tagged human NEK3 expressed in baculovirus expression system using S2 as substrate incubated for 2 hrs by HTRF assay. Background: TR-FRET usually uses a lanthanide donor and a delayed reading to cut background.

In data set [3] the target is T3, Serine/threonine-protein kinase Nek3 (Homo sapiens) (UniProt P51956).
T3 sequence (whole entry): T2 sequence (P51956 whole entry)
Put plainly: Inhibition of recombinant full length N-terminal GST -tagged human NEK3 expressed in baculovirus expression system using S2 as substrate incubated for 2 hrs by HTRF assay relative to control. The note with it: Sf9, concentration not given here.

The next data set deals with RAW264.7. The experiment in a line: Inhibition of MST1 in mouse RAW264.7 cells assessed as reduction in H2O2-stimulated MOB1 phosphorylation at T35 residue preincubated for 2 hrs followed by H2O2 addition for 30 mins by Western blotting analysis. The data set is classed as cell-based. The note with it: dose 0.1-10 µM, time 2.5 hrs, DDE = dose-dependent effect. On the technique in general: In western blotting, separated proteins are transferred to a membrane and probed.

Data set [4] can be described thus: Half life in mouse at 1 mg/kg, iv measured up to 12 hrs by LC-MS/MS analysis. The data set is classed as ADME, organism-based. The note with it: in vivo.
Data set [5] can be described thus: Cmax in mouse at 1 mg/kg, iv measured up to 12 hrs by LC-MS/MS analysis. The data set is classed as ADME, organism-based. Further details: time < 12 hrs, dose 1 mg/kg, route iv. The note with it: in vivo.
The nature of data set [6]: Half life in Sprague-Dawley rat at 1 mg/kg, iv measured up to 12 hrs by LC-MS/MS analysis. The data set is classed as ADME, organism-based. The note with it: in vivo.
The nature of data set [7]: Cmax in Sprague-Dawley rat at 10 mg/kg, po measured up to 24 hrs by LC-MS/MS analysis. The data set is classed as ADME, organism-based. Set-up: dose 10 mg/kg, time < 24 hrs, route po. The note with it: in vivo.
The nature of data set [8]: AUC (0 to t) in Beagle dog at 1 mg/kg, iv measured up to 12 hrs by LC-MS/MS analysis. The data set is classed as ADME, organism-based, Canis lupus familiaris. Further details: time < 12 hrs, dose 1 mg/kg, route iv. The note with it: in vivo.
Data set [9] can be described thus: Cmax in Beagle dog at 1 mg/kg, iv measured up to 12 hrs by LC-MS/MS analysis. The data set is classed as ADME, organism-based, Canis lupus familiaris. Further details: dose 1 mg/kg, time < 12 hrs, route iv. The note with it: in vivo.
Data set [10] can be described thus: Oral bioavailability in Beagle dog at 10 mg/kg measured up to 24 hrs by LC-MS/MS analysis. The note with it: in vivo. The data set is classed as ADME, organism-based, Canis lupus familiaris.
For data set [11], the system named is Mus musculus. Put plainly: Antidiabetic activity against 8 hrs fasted multi low dose STZ-induced C57BL/6J mouse model of type 1 diabetes assessed as decrease in fasting blood glucose level at 50 mg/kg, po administered measured immediately in presence of metformin (reference value: 19.3 mmol/L). The data set is classed as functional.
The test system of data set [12] is Mus musculus. The experiment in a line: Antidiabetic activity against multi low dose STZ-induced C57BL/6J mouse model of type 1 diabetes assessed as food intake at 50 mg/kg, po administered for 1 to 2 days (reference value: 4.5 g/day). The data set is classed as functional. The note with it: time 1-2 day.
In data set [13] the test system is Mus musculus. Put plainly: Antidiabetic activity against 12 hrs fasted high fat diet-STZ-induced C57BL/6J mouse model of type 2 diabetes assessed as decrease in fasting blood glucose level at 50 mg/kg, po qd administered measured immediately in presence of metformin (reference value: 20.3 mmol/L). The data set is classed as functional.
Data set [14] deals with Mus musculus. Put plainly: Antidiabetic activity against high fat diet-STZ-induced C57BL/6J mouse model of type 2 diabetes assessed as improvement in food intake at 50 mg/kg, po qd administered upto 106 days in presence of metformin. The data set is classed as functional, organism-based. The note with it: time <= 106.0 day.
Data set [15] deals with Mus musculus. The experiment in a line: Antidiabetic activity against high fat diet-STZ-induced C57BL/6J mouse model of type 2 diabetes assessed as improvement in water consumption at 50 mg/kg, po qd administered upto 106 days in presence of metformin. The data set is classed as functional, organism-based. The note with it: time <= 106.0 day.
The nature of data set [16]: Toxicity in multi low dose STZ-induced C57BL/6J mouse model of Type 1 diabetes assessed as effect on body weight at 50 mg/kg, po qd. The data set is classed as organism-based. The note with it: in vivo.
The subject of data set [17] is INS1. Put plainly: Cytotoxicity against rat INS1 cells at 10 uM incubated for 72 hrs by Cell Titer-Glo assay. The note with it: ins1, 72 h. The data set is classed as toxicity, cell-based.
The test system of data set [18] is INS1. The experiment in a line: Protection against IFN-gamma-induced cell damage in rat INS1 cells assessed as increase in cell survival at 0.03 to 0.3 uM incubated for 48 hrs by Cell Titer-Glo assay. The note with it: dose 0.03-0.3 µM. The data set is classed as functional, cell-based. (ATP-based viability assays read luminescence as a measure of living cells.)

For data set [19], the system named is INS1. The experiment in a line: Protection against TNF-alpha-induced damage in rat INS1 cells assessed as increase in cell survival at 0.03 to 0.3 uM incubated for 48 hrs by Cell Titer-Glo assay. The data set is classed as functional, cell-based. The note with it: dose 0.03-0.3 µM.
The test system of data set [20] is Serine/threonine-protein kinase 4 (Rattus norvegicus). Put plainly: Inhibition of IL-1beta-stimulated MST1 phosphorylation in rat RIN-m5F cells incubated for 12 hrs by Western blotting analysis. The note with it: dose 0.1-10 µM, DDE = dose-dependent effect.
For data set [21] the test system is unchanged. Put plainly: Inhibition of TNF-alpha-stimulated MST1 phosphorylation in rat RIN-m5F cells incubated for 12 hrs by Western blotting analysis. The note with it: dose 0.1-10 µM, DDE = dose-dependent effect.
Data set [22] has the same test system. The experiment in a line: Inhibition of IL-1beta-stimulated MST1 in rat INS1 cells assessed as reduction in MOB1 autophosphorylation incubated for 12 hrs by Western blotting analysis. The note with it: dose 0.1-10 µM, DDE = dose-dependent effect.

The source made the active and inactive calls. No cut-off for these calls is given here.

Regarding `Cc1ccccc1C1C(=O)N(C)c2cnc(Nc3ccc(S(N)(=O)=O)cc3)nc2N1C` (stereo not drawn), the IC50 in data set [1] was 0.652 µM; in data set [2], > 10 µM. Moreover, the inhibition in data set [3] is 0.85%; with RAW264.7 it was “Dde”; in data set [20], “Dde”; in [21], “Dde”; in data set [22] it was “Dde”. In addition, the half-life in data set [4] was 1.7 h; in [6], 3.51 h. For the same molecule, the peak concentration (Cmax) in data set [5] was 1240 ng/mL; in data set [7], 1720 ng/mL; in [9], 467 ng/mL. Further, the area under the curve AUC(0-t) at 12 h in data set [8] came to 764 ng·h/mL. Further, the bioavailability in data set [10] is 106%. Besides, the Activity is 19.3 mmol/L in the data set on Mus musculus [11]; 4.5 g/day with Mus musculus [12]; 20.3 mmol/L in the data set with Mus musculus [13]; “Non-Toxic” in data set [16]; “Non-Toxic” in the data set on INS1 [17]. The outcome in the data set on Mus musculus [14], in the data set on Mus musculus [15], with INS1 [18] and with INS1 [19] was Active.

One may read the IC50 as the concentration needed to halve the response being measured. In general, inhibition refers to the drop in the measured response relative to a control, in per cent. Broadly, the half-life is how long it takes for the measured level to halve. Higher therefore signals slow decline. One may read the Cmax as the peak of the concentration-time curve. As a reminder, the AUC(0-t) is the area under the concentration-time curve up to a stated or last time point. The low end stands for low exposure, the high end for high exposure.
